Results from patent US20220054513A1, “COMBINATION COMPOSITIONS COMPRISING A BETA-LACTAMASE INHIBITOR” (VenatoRx Pharmaceuticals, Inc., priority 2018, published 2022).
Where two headings read alike, the source gives them in different places.

Experiments:
[1] = system: MDR-Acinetobacter; experiment: broth microdilution MIC of cefiderocol +/- Compound 1 in IDM, panel of 40 MDR Acinetobacter; type: cell-based, A. baumannii; conditions: for MIC: read-out: Minimum inhibitory concentration (MIC)
[2] = system: β-lactamase expressing K. pneumoniae; experiment: broth microdilution MIC of cefiderocol +/- Compound 1, K. pneumoniae strains; type: cell-based; conditions: Klebsiella pneumoniae
[3] = system: β-lactamase expressing E. cloacae; experiment: broth microdilution MIC of cefiderocol +/- Compound 1, E. cloacae strains; type: cell-based; conditions: Enterobacter cloacae
[4] = system: MDR-Pseudomonas; experiment: broth microdilution MIC of cefiderocol +/- Compound 1 in IDM, panel of 16 MDR Pseudomonas aeruginosa; type: cell-based, P. aeruginosa; conditions: for MIC: Pseudomonas aeruginosa, read-out: Minimum inhibitory concentration (MIC)
[5] = Acinetobacter baumannii, panel of 40 MDR Acinetobacter, IDM
[6] = panel of 16 MDR Pseudomonas aeruginosa, IDM

Question: How did the “Minimum inhibitory concentration (MIC)” value ([1]; A. baumannii 157076, IDM) turn out when `CC(C)(O/N=C(\C(=O)N[C@@H]1C(=O)N2C(C(=O)[O-])=C(C[N+]3(CCNC(=O)c4ccc(O)c(O)c4Cl)CCCC3)CS[C@H]12)c1csc(N)n1)C(=O)O` [FDC, cefiderocol] was run?
Answer: 0.125 µg/mL

Question: And the “Minimum inhibitory concentration (MIC)” value ([1]; A. baumannii 157078, IDM)?
Answer: 0.125 µg/mL

Question: What about the “Minimum inhibitory concentration (MIC)” value ([1]; A. baumannii 161761, IDM) of the same compound?
Answer: 0.125 µg/mL

Question: And the “Minimum inhibitory concentration (MIC)” value ([1]; A. baumannii 163264, IDM)?
Answer: 0.125 µg/mL

Question: What about the “Minimum inhibitory concentration (MIC)” value ([1]; A. baumannii 164890, IDM) of the same compound?
Answer: 0.125 µg/mL

Question: What about the “Minimum inhibitory concentration (MIC)” value ([1]; A. baumannii 164891, IDM) of the same compound?
Answer: 0.125 µg/mL

Question: And the “Minimum inhibitory concentration (MIC)” value ([1]; A. baumannii 165039, IDM)?
Answer: 0.125 µg/mL

Question: And the “Minimum inhibitory concentration (MIC)” value ([1]; A. baumannii CDC-0056, IDM)?
Answer: 0.125 µg/mL

Question: And the MIC ([1]; Acinetobacter baumannii, A. baumannii 0045, IDM)?
Answer: 0.5 µg/mL

Question: And the MIC ([1]; Acinetobacter baumannii, A. baumannii 157070, IDM)?
Answer: 0.25 µg/mL

Question: What about the MIC ([1]; Acinetobacter baumannii, A. baumannii 157071, IDM) of the same compound?
Answer: 0.03 µg/mL

Question: And the MIC ([1]; Acinetobacter baumannii, A. baumannii 157072, IDM)?
Answer: 0.25 µg/mL

Question: What about the MIC ([1]; Acinetobacter baumannii, A. baumannii 157074, IDM) of the same compound?
Answer: 0.06 µg/mL

Question: What about the MIC ([1]; Acinetobacter baumannii, A. baumannii 157079, IDM) of the same compound?
Answer: 0.5 µg/mL

Question: What about the MIC ([1]; Acinetobacter baumannii, A. baumannii 157865, IDM) of the same compound?
Answer: 4 µg/mL

Question: What about the MIC ([1]; Acinetobacter baumannii, A. baumannii 161754, IDM) of the same compound?
Answer: 0.25 µg/mL

Question: What about the MIC ([1]; Acinetobacter baumannii, A. baumannii 161763, IDM) of the same compound?
Answer: 0.5 µg/mL

Question: And the MIC ([1]; Acinetobacter baumannii, A. baumannii 163169, IDM)?
Answer: 0.03 µg/mL

Question: And the MIC ([1]; Acinetobacter baumannii, A. baumannii 164899, IDM)?
Answer: 0.25 µg/mL

Question: And the MIC ([1]; Acinetobacter baumannii, A. baumannii CDC-0033, IDM)?
Answer: 0.5 µg/mL

Question: And the MIC ([1]; Acinetobacter baumannii, A. baumannii CDC-0035, IDM)?
Answer: 0.25 µg/mL

Question: What about the MIC ([1]; Acinetobacter baumannii, A. baumannii CDC-0036, IDM) of the same compound?
Answer: 1 µg/mL

Question: What about the MIC ([1]; Acinetobacter baumannii, A. baumannii CDC-0037, IDM) of the same compound?
Answer: 4 µg/mL

Question: And the MIC ([1]; Acinetobacter baumannii, A. baumannii CDC-0052, IDM)?
Answer: 8 µg/mL

Question: And the MIC ([1]; Acinetobacter baumannii, A. baumannii CDC-0063, IDM)?
Answer: 0.5 µg/mL

Question: And the MIC ([1]; Acinetobacter baumannii, A. baumannii CDC-0070, IDM)?
Answer: 0.25 µg/mL

Question: And the MIC ([1]; Acinetobacter baumannii, A. baumannii CDC-0078, IDM)?
Answer: 0.5 µg/mL

Question: And the MIC ([1]; Acinetobacter baumannii, A. baumannii CDC-0083, IDM)?
Answer: 1 µg/mL

Question: What about the MIC ([1]; Acinetobacter baumannii, A. baumannii CDC-0088, IDM) of the same compound?
Answer: 8.1 µg/mL

Question: And the MIC ([1]; Acinetobacter baumannii, A. baumannii CDC-0101, IDM)?
Answer: 0.06 µg/mL

Question: And the MIC ([1]; Acinetobacter baumannii, A. baumannii CDC-0102, IDM)?
Answer: 1 µg/mL

Question: And the MIC ([1]; Acinetobacter baumannii, A. baumannii GM235, IDM)?
Answer: 1 µg/mL

Question: What about the MIC ([1]; Acinetobacter baumannii, A. baumannii GM236, IDM) of the same compound?
Answer: 0.03 µg/mL

Question: What about the MIC ([1]; Acinetobacter baumannii, A. baumannii GM237, IDM) of the same compound?
Answer: 0.25 µg/mL

Question: And the MIC ([1]; Acinetobacter baumannii, A. baumannii GM238, IDM)?
Answer: 0.25 µg/mL

Question: And the MIC ([1]; Acinetobacter baumannii, A. baumannii GM239, IDM)?
Answer: 2 µg/mL

Question: What about the MIC ([1]; Acinetobacter baumannii, A. baumannii SI-141, IDM) of the same compound?
Answer: 4 µg/mL

Question: What about the MIC ([1]; Acinetobacter baumannii, ATCC17978, A. baumannii ATCC 17978, IDM) of the same compound?
Answer: 0.25 µg/mL

Question: And the MIC ([1]; Acinetobacter baumannii, NCTC13301, A. baumannii NCTC 13301, IDM)?
Answer: 1 µg/mL

Question: What about the MIC ([1]; Acinetobacter baumannii) of the same compound?
Answer: 0.125 µg/mL

Question: And the MIC50 [1, 5]?
Answer: 0.25 µg/mL

Question: And the MIC90 [1, 5]?
Answer: 4 µg/mL

Question: What about the MIC ([2]; read-out: Minimum inhibitory concentration (MIC), K. pneummoniae CDC-34 (IMP), IDM) of the same compound?
Answer: 0.125 µg/mL

Question: And the MIC ([2]; read-out: Minimum inhibitory concentration (MIC), K. pneummoniae CDC-34 (IMP), MHBII)?
Answer: 2 µg/mL

Question: And the MIC ([2]; read-out: Minimum inhibitory concentration (MIC), K. pneummoniae CDC-40 (VIM), IDM)?
Answer: 1 µg/mL

Question: And the MIC ([2]; read-out: Minimum inhibitory concentration (MIC), K. pneummoniae CDC-40 (VIM), MHBII)?
Answer: 2 µg/mL

Question: What about the MIC ([2]; read-out: Minimum inhibitory concentration (MIC), K. pneummoniae CDC-41 (NDM), IDM) of the same compound?
Answer: 8 µg/mL

Question: And the MIC ([2]; read-out: Minimum inhibitory concentration (MIC), K. pneummoniae CDC-41 (NDM), MHBII)?
Answer: 128 µg/mL

Question: What about the MIC ([2]; read-out: Minimum inhibitory concentration (MIC), K. pneummoniae CDC-140 (OXA-181), IDM) of the same compound?
Answer: 0.25 µg/mL

Question: And the MIC ([2]; read-out: Minimum inhibitory concentration (MIC), K. pneummoniae CDC-140 (OXA-181), MHBII)?
Answer: 0.5 µg/mL

Question: And the MIC ([2]; read-out: Minimum inhibitory concentration (MIC), K. pneummoniae CDC-153 (NDM, OXA-232), IDM)?
Answer: 0.06 µg/mL

Question: And the MIC ([2]; read-out: Minimum inhibitory concentration (MIC), K. pneummoniae CDC-153 (NDM, OXA-232), MHBII)?
Answer: 32 µg/mL

Question: And the MIC ([2]; read-out: Minimum inhibitory concentration (MIC), K. pneumoniae 847204 (KPC-2), IDM)?
Answer: 0.5 µg/mL

Question: And the MIC ([2]; read-out: Minimum inhibitory concentration (MIC), K. pneumoniae 847204 (KPC-2), MHBII)?
Answer: 16 µg/mL

Question: And the MIC ([2]; read-out: Minimum inhibitory concentration (MIC), K. pneumoniae 847375 (SHV-12, KPC-2), IDM)?
Answer: 2 µg/mL

Question: What about the MIC ([2]; read-out: Minimum inhibitory concentration (MIC), K. pneumoniae 847375 (SHV-12, KPC-2), MHBII) of the same compound?
Answer: 32 µg/mL

Question: What about the MIC ([2]; read-out: Minimum inhibitory concentration (MIC), K. pneumoniae 847747 (CTX-M-2, KPC), IDM) of the same compound?
Answer: 0.125 µg/mL

Question: And the MIC ([2]; read-out: Minimum inhibitory concentration (MIC), K. pneumoniae 847747 (CTX-M-2, KPC), MHBII)?
Answer: 8 µg/mL

Question: What about the MIC ([2]; read-out: Minimum inhibitory concentration (MIC), K. pneumoniae KIRK (OXA-162), IDM) of the same compound?
Answer: 0.25 µg/mL

Question: And the MIC ([2]; read-out: Minimum inhibitory concentration (MIC), K. pneumoniae KIRK (OXA-162), MHBII)?
Answer: 32 µg/mL

Question: What about the MIC ([2]; read-out: Minimum inhibitory concentration (MIC), K. pneumoniae KPC157 (KPC-3), IDM) of the same compound?
Answer: 0.5 µg/mL

Question: What about the MIC ([2]; read-out: Minimum inhibitory concentration (MIC), K. pneumoniae KPC157 (KPC-3), MHBII) of the same compound?
Answer: 8 µg/mL

Question: And the MIC ([2]; read-out: Minimum inhibitory concentration (MIC), K. pneumoniae KPC261 (KPC-2), IDM)?
Answer: 0.5 µg/mL

Question: What about the MIC ([2]; read-out: Minimum inhibitory concentration (MIC), K. pneumoniae KPC261 (KPC-2), MHBII) of the same compound?
Answer: 16 µg/mL

Question: What about the MIC ([2]; read-out: Minimum inhibitory concentration (MIC), K. pneumoniae OMAN 13 (NDM-1), IDM) of the same compound?
Answer: 2 µg/mL

Question: What about the MIC ([2]; read-out: Minimum inhibitory concentration (MIC), K. pneumoniae OMAN 13 (NDM-1), MHBII) of the same compound?
Answer: 32 µg/mL

Question: And the MIC ([2]; read-out: Minimum inhibitory concentration (MIC), K. pneumoniae SI-117 (VIM-1), IDM)?
Answer: 4 µg/mL

Question: And the MIC ([2]; read-out: Minimum inhibitory concentration (MIC), K. pneumoniae SI-117 (VIM-1), MHBII)?
Answer: 16 µg/mL

Question: And the MIC ([3]; read-out: Minimum inhibitory concentration (MIC), E. cloacae CDC-93 (KPC), IDM)?
Answer: 0.5 µg/mL

Question: And the MIC ([3]; read-out: Minimum inhibitory concentration (MIC), E. cloacae CDC-93 (KPC), MHBII)?
Answer: 1 µg/mL

Question: What about the MIC ([3]; read-out: Minimum inhibitory concentration (MIC), E. cloacae CDC-161 (IMP), IDM) of the same compound?
Answer: 1 µg/mL

Question: And the MIC ([3]; read-out: Minimum inhibitory concentration (MIC), E. cloacae CDC-161 (IMP), MHBII)?
Answer: 16 µg/mL

Question: What about the MIC ([3]; read-out: Minimum inhibitory concentration (MIC), E. cloacae Entb239 (p99 AmpC, KPC-3, CTXM-15, GES-1, IMI-1), IDM) of the same compound?
Answer: 2 µg/mL

Question: And the MIC ([3]; read-out: Minimum inhibitory concentration (MIC), E. cloacae Entb239 (p99 AmpC, KPC-3, CTXM-15, GES-1, IMI-1), MHBII)?
Answer: 1 µg/mL

Question: And the MIC ([4]; P. aeruginosa 40, IDM)?
Answer: 4 µg/mL

Question: And the MIC ([4]; P. aeruginosa 451, IDM)?
Answer: 4 µg/mL

Question: What about the MIC ([4]; P. aeruginosa 635, IDM) of the same compound?
Answer: 0.5 µg/mL

Question: And the MIC ([4]; P. aeruginosa 152021, IDM)?
Answer: 0.25 µg/mL

Question: And the MIC ([4]; P. aeruginosa 1013996, IDM)?
Answer: 0.25 µg/mL

Question: What about the MIC ([4]; P. aeruginosa 1121828, IDM) of the same compound?
Answer: 1 µg/mL

Question: What about the MIC ([4]; P. aeruginosa 1131170, IDM) of the same compound?
Answer: 2 µg/mL

Question: What about the MIC ([4]; P. aeruginosa 1179543, IDM) of the same compound?
Answer: 2 µg/mL

Question: And the MIC ([4]; P. aeruginosa CDC-0054, IDM)?
Answer: 0.5 µg/mL

Question: And the MIC ([4]; P. aeruginosa CDC-0064, IDM)?
Answer: 0.5 µg/mL

Question: And the MIC ([4]; P. aeruginosa CDC-0095, IDM)?
Answer: 0.059 µg/mL

Question: What about the MIC ([4]; P. aeruginosa CDC-0103, IDM) of the same compound?
Answer: 4 µg/mL

Question: And the MIC ([4]; P. aeruginosa CDC-0108, IDM)?
Answer: 0.25 µg/mL

Question: What about the MIC ([4]; P. aeruginosa CDC-0110, IDM) of the same compound?
Answer: 8 µg/mL

Question: And the MIC ([4]; P. aeruginosa CDC-0111, IDM)?
Answer: 0.059 µg/mL

Question: What about the MIC [4] of the same compound?
Answer: 0.125 µg/mL

Question: What about the MIC50 [4, 6] of the same compound?
Answer: 0.5 µg/mL

Question: What about the MIC90 [4, 6] of the same compound?
Answer: 4 µg/mL
